Tested on: MV-4-11 cells
Assay: Gene expression microarray analysis (Affymetrix PrimeView) and GSEA
Format: cell-based, human
Parameters: RFU PODN (11730768_x_at) / Fold change /veh PODN (11730768_x_at) / RFU LINC00158 (11744669_a_at) / Fold change /veh LINC00158 (11744669_a_at) / RFU DUSP10 (11751237_a_at) / Fold change /veh DUSP10 (11751237_a_at) / RFU ID3 (11757404_x_at) / Fold change /veh ID3 (11757404_x_at) / RFU PLEKHG5 (11737974_s_at) / Fold change /veh PLEKHG5 (11737974_s_at) / RFU LRRC4B (11730491_at) / Fold change /veh LRRC4B (11730491_at) / RFU GIMAP4 (11747438_a_at) / Fold change /veh GIMAP4 (11747438_a_at) / RFU KRT8 (11758183_x_at) / Fold change /veh KRT8 (11758183_x_at) / RFU CNN1 (11734310_a_at) / Fold change /veh CNN1 (11734310_a_at) / RFU VPS37D (11726825_at) / Fold change /veh VPS37D (11726825_at) / RFU C10orf10 (11716522_x_at) / Fold change /veh C10orf10 (11716522_x_at) / RFU KIR2DL2 /// KIR2DL4 /// KIR2DL5A /// KIR2DL5B /// KIR2DS1 /// KIR2DS2 /// KIR2DS3 /// KIR2DS4 /// KIR3DL3 /// KIR3DL3 /// KIR3DS1 (11738374_at) / Fold change /veh KIR2DL2 /// KIR2DL4 /// KIR2DL5A /// KIR2DL5B /// KIR2DS1 /// KIR2DS2 /// KIR2DS3 /// KIR2DS4 /// KIR3DL3 /// KIR3DL3 /// KIR3DS1 (11738374_at) / RFU C1QL1 (11718748_at) / Fold change /veh C1QL1 (11718748_at) / RFU TMPRSS4 (11747572_a_at) / Fold change /veh TMPRSS4 (11747572_a_at) / RFU HAMP (11756126_x_at) / Fold change /veh HAMP (11756126_x_at) / RFU RNFT2 (11725882_a_at) / Fold change /veh RNFT2 (11725882_a_at) / RFU NR4A2 (11747474_a_at) / Fold change /veh NR4A2 (11747474_a_at) / RFU ABCC12 (11746883_a_at) / Fold change /veh ABCC12 (11746883_a_at) / RFU TMEM136 (11760407_x_at) / Fold change /veh TMEM136 (11760407_x_at) / RFU CLDN22 /// WWC2 (11732394_at) / Fold change /veh CLDN22 /// WWC2 (11732394_at) / RFU HLA-DPB1 (11760878_x_at) / Fold change /veh HLA-DPB1 (11760878_x_at) / RFU SPINT1 (11716480_a_at) / Fold change /veh SPINT1 (11716480_a_at) / RFU GAP43 (11754022_s_at) / Fold change /veh GAP43 (11754022_s_at) / RFU A4GNT (11735810_at) / Fold change /veh A4GNT (11735810_at) / RFU PRB3 (11715151_x_at) / Fold change /veh PRB3 (11715151_x_at) / RFU TUBB4B (11761932_at) / Fold change /veh TUBB4B (11761932_at) / RFU CAPN14 (11732068_a_at) / Fold change /veh CAPN14 (11732068_a_at) / RFU TMCC2 (11721928_a_at) / Fold change /veh TMCC2 (11721928_a_at) / RFU IRGQ (11745062_a_at) / Fold change /veh IRGQ (11745062_a_at) / RFU FAM174B (11720279_a_at) / Fold change /veh FAM174B (11720279_a_at) / RFU TMPRSS4 (11748680_a_at) / Fold change /veh TMPRSS4 (11748680_a_at) / RFU FAM212B (11763350_a_at) / Fold change /veh FAM212B (11763350_a_at) / RFU PLEKHG5 (11743358_a_at) / Fold change /veh PLEKHG5 (11743358_a_at) / RFU ZSCAN30 (11745921_a_at) / Fold change /veh ZSCAN30 (11745921_a_at) / RFU CMKLR1 (11741424_a_at) / Fold change /veh CMKLR1 (11741424_a_at) / RFU LOC101060620 /// MAPK8IP1 (11723275_at) / Fold change /veh LOC101060620 /// MAPK8IP1 (11723275_at) / RFU SPTSSB (11747773_x_at) / Fold change /veh SPTSSB (11747773_x_at) / RFU PRSS12 (11739890_at) / Fold change /veh PRSS12 (11739890_at) / RFU BIN1 (11741810_x_at) / Fold change /veh BIN1 (11741810_x_at) / RFU WNT11 (11732464_a_at) / Fold change /veh WNT11 (11732464_a_at) / RFU C10orf10 (11716521_a_at) / Fold change /veh C10orf10 (11716521_a_at) / RFU C5orf56 (11738089_at) / Fold change /veh C5orf56 (11738089_at) / RFU CYB561 (11721691_x_at) / Fold change /veh CYB561 (11721691_x_at) / RFU ANKRD19P (11752326_a_at) / Fold change /veh ANKRD19P (11752326_a_at) / RFU OR2T12 /// OR2T33 /// OR2T8 (11738714_s_at) / Fold change /veh OR2T12 /// OR2T33 /// OR2T8 (11738714_s_at) / RFU VCAN (11748164_a_at) / Fold change /veh VCAN (11748164_a_at) / RFU JSRP1 (11732532_at) / Fold change /veh JSRP1 (11732532_at) / RFU KRTAP10-11 (11738290_x_at) / Fold change /veh KRTAP10-11 (11738290_x_at) / RFU MYO3A (11730013_a_at) / Fold change /veh MYO3A (11730013_a_at) / RFU EBF3 (11725865_a_at) / Fold change /veh EBF3 (11725865_a_at) / RFU CAMK2N1 (11719241_x_at) / Fold change /veh CAMK2N1 (11719241_x_at) / RFU C5orf56 (11738088_a_at) / Fold change /veh C5orf56 (11738088_a_at) / RFU OLFML3 (11715873_a_at) / Fold change /veh OLFML3 (11715873_a_at) / RFU LOC100653217 /// NTM (11731650_a_at) / Fold change /veh LOC100653217 /// NTM (11731650_a_at) / RFU MAPK11 (11762145_a_at) / Fold change /veh MAPK11 (11762145_a_at) / RFU FIZ1 (11724087_x_at) / Fold change /veh FIZ1 (11724087_x_at) / RFU OASL (11726364_x_at) / Fold change /veh OASL (11726364_x_at) / RFU SOX15 (11748057_x_at) / Fold change /veh SOX15 (11748057_x_at) / RFU CD79A (11719716_a_at) / Fold change /veh CD79A (11719716_a_at) / RFU HIST1H1D (11736915_at) / Fold change /veh HIST1H1D (11736915_at) / RFU CASKIN2 (11723855_a_at) / Fold change /veh CASKIN2 (11723855_a_at) / RFU LOC730098 (11760151_x_at) / Fold change /veh LOC730098 (11760151_x_at) / RFU OR4N2 (11742367_at) / Fold change /veh OR4N2 (11742367_at) / RFU PRRT2 (11749266_a_at) / Fold change /veh PRRT2 (11749266_a_at) / RFU SNX32 (11753110_a_at) / Fold change /veh SNX32 (11753110_a_at) / RFU CDHR5 (11726645_a_at) / Fold change /veh CDHR5 (11726645_a_at) / RFU RCAN1 (11760418_a_at) / Fold change /veh RCAN1 (11760418_a_at) / RFU FAM167A (11723789_a_at) / Fold change /veh FAM167A (11723789_a_at) / RFU FAM26E (11764081_at) / Fold change /veh FAM26E (11764081_at) / RFU ISYNA1 (11749810_s_at) / Fold change /veh ISYNA1 (11749810_s_at) / RFU ACY1 (11761880_at) / Fold change /veh ACY1 (11761880_at) / RFU 11764098_at / Fold change /veh 11764098_at / RFU SAMD14 (11745864_x_at) / Fold change /veh SAMD14 (11745864_x_at) / RFU NPB (11741838_a_at) / Fold change /veh NPB (11741838_a_at) / RFU TMPRSS6 (11731388_a_at) / Fold change /veh TMPRSS6 (11731388_a_at) / RFU KRTAP10-2 (11738614_at) / Fold change /veh KRTAP10-2 (11738614_at) / RFU ARHGAP8 /// PRR5-ARHGAP8 (11727945_x_at) / Fold change /veh ARHGAP8 /// PRR5-ARHGAP8 (11727945_x_at) / RFU KRTAP5-7 /// NADSYN1 (11734609_at) / Fold change /veh KRTAP5-7 /// NADSYN1 (11734609_at) / RFU RASL12 (11751679_a_at) / Fold change /veh RASL12 (11751679_a_at) / RFU CDKN2B (11736163_a_at) / Fold change /veh CDKN2B (11736163_a_at) / RFU PRF1 (11729649_at) / Fold change /veh PRF1 (11729649_at) / RFU, ZNF638 /// ZNF638-IT1 / Fold change vs veh, ZNF638 /// ZNF638-IT1 / RFU, PANK3 / Fold change vs veh, PANK3 / RFU, SH3YL1 / Fold change vs veh, SH3YL1 / RFU, ZEB2 / Fold change vs veh, ZEB2 / RFU, NRIP1 / Fold change vs veh, NRIP1 / RFU, PTTG1IP / Fold change vs veh, PTTG1IP / RFU, CAPN2 / Fold change vs veh, CAPN2 / RFU, MED14 / Fold change vs veh, MED14 / RFU, SNORA58 / Fold change vs veh, SNORA58 / RFU, C1orf63 / Fold change vs veh, C1orf63 / RFU, LRRFIP1 / Fold change vs veh, LRRFIP1 / RFU, NDUFAF7 / Fold change vs veh, NDUFAF7 / RFU, SLC12A2 / Fold change vs veh, SLC12A2 / RFU, IBTK / Fold change vs veh, IBTK / RFU, ESF1 / Fold change vs veh, ESF1 / Fold change vs veh, TMEM50B / RFU, TAOK1 / Fold change vs veh, TAOK1 / RFU, ACBD3 / Fold change vs veh, ACBD3 / RFU, TMA16 / Fold change vs veh, TMA16 / RFU, RWDD3 / Fold change vs veh, RWDD3 / RFU, BCAT1 / Fold change vs veh, BCAT1 / RFU, EDEM3 / Fold change vs veh, EDEM3 / RFU, TMEM33 / Fold change vs veh, TMEM33 / RFU, WDR75 / Fold change vs veh, WDR75 / RFU, AHCTF1 / Fold change vs veh, AHCTF1 / RFU, TFRC / Fold change vs veh, TFRC / RFU, ZDHHC17 / Fold change vs veh, ZDHHC17 / RFU, NOM1 / Fold change vs veh, NOM1 / RFU, ARL8B / Fold change vs veh, ARL8B / RFU, ZBTB11 / Fold change vs veh, ZBTB11 / RFU, TAMM41 / Fold change vs veh, TAMM41 / RFU, KIAA1704 /// LOC100996395 / Fold change vs veh, KIAA1704 /// LOC100996395 / RFU, ING1 / Fold change vs veh, ING1 / RFU, TRMT61B / Fold change vs veh, TRMT61B / RFU, FUBP3 / Fold change vs veh, FUBP3 / RFU, TP53 / Fold change vs veh, TP53 / RFU, TNKS2 / Fold change vs veh, TNKS2 / RFU, ZFP14 / Fold change vs veh, ZFP14 / RFU, ACTR2 / Fold change vs veh, ACTR2 / RFU, PPP3R1 / Fold change vs veh, PPP3R1 / RFU, PIK3R1 / Fold change vs veh, PIK3R1 / RFU, HNRNPA1 / Fold change vs veh, HNRNPA1 / RFU, RNF170 / Fold change vs veh, RNF170 / RFU, ZNF28 / Fold change vs veh, ZNF28 / RFU, RNGTT / Fold change vs veh, RNGTT / RFU, OGT / Fold change vs veh, OGT / RFU, BRD1 / Fold change vs veh, BRD1 / RFU, MARS / Fold change vs veh, MARS / RFU, ZNF655 / Fold change vs veh, ZNF655 / RFU, FAHD1 / Fold change vs veh, FAHD1 / RFU, BDP1 / Fold change vs veh, BDP1 / RFU, LRRCC1 / Fold change vs veh, LRRCC1 / RFU, ARID1A / Fold change vs veh, ARID1A / RFU, ZNF146 / Fold change vs veh, ZNF146 / RFU, ZNF330 / Fold change vs veh, ZNF330 / RFU, GPN3 / Fold change vs veh, GPN3 / RFU, C9orf123 / Fold change vs veh, C9orf123 / RFU, N4BP2L2 / Fold change vs veh, N4BP2L2 / RFU, ARFIP1 / Fold change vs veh, ARFIP1 / RFU, FAM179B / Fold change vs veh, FAM179B / RFU, BCL10 / Fold change vs veh, BCL10 / RFU, UHRF1BP1L / Fold change vs veh, UHRF1BP1L / RFU, BET1 / Fold change vs veh, BET1 / RFU, CNOT2 / Fold change vs veh, CNOT2 / RFU, ZNF268 / Fold change vs veh, ZNF268 / Fold change vs veh, ZNF507 / RFU, DGCR2 / Fold change vs veh, DGCR2 / RFU, WDSUB1 / Fold change vs veh, WDSUB1 / Fold change vs veh, HSP90B1 /// MIR3652 / RFU, ADSS / Fold change vs veh, ADSS / RFU, GK / Fold change vs veh, GK / RFU, ZNF148 / Fold change vs veh, ZNF148 / RFU, TAF9 / Fold change vs veh, TAF9 / RFU, SLC1A5 / Fold change vs veh, SLC1A5 / RFU, SLMO2 / Fold change vs veh, SLMO2 / RFU, ABCC4 / Fold change vs veh, ABCC4 / RFU, LOC101060439 /// RAP1B / Fold change vs veh, LOC101060439 /// RAP1B / RFU, RFX7 / Fold change vs veh, RFX7 / RFU, GTPBP10 / Fold change vs veh, GTPBP10 / RFU, CNEP1R1 / Fold change vs veh, CNEP1R1 / RFU, BIVM-ERCC5 /// ERCC5 / Fold change vs veh, BIVM-ERCC5 /// ERCC5 / RFU, ILF3 / Fold change vs veh, ILF3 / RFU 11762660_at / Fold change /veh 11762660_at / RFU VCAN (11757783_s_at) / Fold change /veh VCAN (11757783_s_at) / RFU DDX43 (11728927_at) / Fold change /veh DDX43 (11728927_at) / RFU KRT8 (11758188_x_at) / Fold change /veh KRT8 (11758188_x_at) / RFU NKD1 (11759106_at) / Fold change /veh NKD1 (11759106_at) / RFU SRD5A1 (11742802_a_at) / Fold change /veh SRD5A1 (11742802_a_at) / RFU TPSAB1 /// TPSB2 (11721975_s_at) / Fold change /veh TPSAB1 /// TPSB2 (11721975_s_at) / RFU GSTM3 (11746129_a_at) / Fold change /veh GSTM3 (11746129_a_at) / RFU IL23R (11737362_x_at) / Fold change /veh IL23R (11737362_x_at) / RFU TMEM51 (11727254_a_at) / Fold change /veh TMEM51 (11727254_a_at) / RFU PIWIL2 (11732686_x_at) / Fold change /veh PIWIL2 (11732686_x_at) / RFU ORM1 (11744905_x_at) / Fold change /veh ORM1 (11744905_x_at) / RFU CCDC152 (11743942_at) / Fold change /veh CCDC152 (11743942_at) / RFU ECM1 (11717891_a_at) / Fold change /veh ECM1 (11717891_a_at) / RFU IL23R (11748794_a_at) / Fold change /veh IL23R (11748794_a_at) / RFU TNFAIP8L3 (11732012_x_at) / Fold change /veh TNFAIP8L3 (11732012_x_at) / RFU MBOAT4 (11741988_at) / Fold change /veh MBOAT4 (11741988_at) / RFU 11764193_at / Fold change /veh 11764193_at / RFU TMEM53 (11763286_at) / Fold change /veh TMEM53 (11763286_at) / RFU MAGEB2 (11727129_at) / Fold change /veh MAGEB2 (11727129_at) / RFU TMEM200A (11744735_a_at) / Fold change /veh TMEM200A (11744735_a_at) / RFU CCDC152 (11751479_a_at) / Fold change /veh CCDC152 (11751479_a_at) / RFU FAM211A (11726209_a_at) / Fold change /veh FAM211A (11726209_a_at) / RFU RGS16 (11746705_a_at) / Fold change /veh RGS16 (11746705_a_at) / RFU VCAN (11755009_s_at) / Fold change /veh VCAN (11755009_s_at) / RFU RHOB (11743442_s_at) / Fold change /veh RHOB (11743442_s_at) / RFU RGS16 (11720943_a_at) / Fold change /veh RGS16 (11720943_a_at) / RFU RGS16 (11720944_at) / Fold change /veh RGS16 (11720944_at) / RFU, VPS4B / Fold change vs veh, VPS4B / RFU, CREB1 / Fold change vs veh, CREB1 / RFU, DNAJC13 / Fold change vs veh, DNAJC13 / RFU, GNAQ / Fold change vs veh, GNAQ / RFU, CDK5R1 / Fold change vs veh, CDK5R1 / RFU, ZRANB3 / Fold change vs veh, ZRANB3 / RFU, CUL4A / Fold change vs veh, CUL4A / RFU, CCNY / Fold change vs veh, CCNY / RFU, UFL1 / Fold change vs veh, UFL1 / RFU, COG3 / Fold change vs veh, COG3 / RFU, DIAPH2 / Fold change vs veh, DIAPH2 / RFU, SKA2 / Fold change vs veh, SKA2 / RFU, AFF3 / Fold change vs veh, AFF3 / RFU, LMF1 / Fold change vs veh, LMF1 / RFU, IPO11 / Fold change vs veh, IPO11 / RFU, DFFB / Fold change vs veh, DFFB / RFU, FOXP1 / Fold change vs veh, FOXP1 / RFU, CARD8 / Fold change vs veh, CARD8 / RFU, STRN3 / Fold change vs veh, STRN3 / RFU, ADK / Fold change vs veh, ADK / RFU, RASSF2 / Fold change vs veh, RASSF2 / RFU, WIPF1 / Fold change vs veh, WIPF1 / RFU, LARP1B / Fold change vs veh, LARP1B / RFU, RASA1 / Fold change vs veh, RASA1 / RFU, RB1 / Fold change vs veh, RB1 / RFU, PPFIA1 / Fold change vs veh, PPFIA1 / RFU, MAT2A / Fold change vs veh, MAT2A / RFU, CCT5 / Fold change vs veh, CCT5 / RFU, WDR92 / Fold change vs veh, WDR92 / RFU, CUX1 / Fold change vs veh, CUX1 / RFU, TTC7A / Fold change vs veh, TTC7A / RFU, TMEM135 / Fold change vs veh, TMEM135 / RFU, DEPTOR / Fold change vs veh, DEPTOR / RFU, CPM / Fold change vs veh, CPM / RFU, DNAJB6 / Fold change vs veh, DNAJB6 / RFU, CACNA2D3 / Fold change vs veh, CACNA2D3 / RFU, DTX4 / Fold change vs veh, DTX4 / RFU, TFCP2 / Fold change vs veh, TFCP2 / RFU, GMCL1 /// GMCL1P1 / Fold change vs veh, GMCL1 /// GMCL1P1 / RFU, AEBP2 / Fold change vs veh, AEBP2 / RFU, SNHG1 /// SNORD22 /// SNORD25 /// SNORD26 /// SNORD27 /// SNORD28 /// SNORD29 /// SNORD31 / Fold change vs veh, SNHG1 /// SNORD22 /// SNORD25 /// SNORD26 /// SNORD27 /// SNORD28 /// SNORD29 /// SNORD31 / Fold change (Aza/veh), C12orf56 (ProbeSet 11735607_a_at) / Fold change (ACY-1035/veh), C12orf56 (ProbeSet 11735607_a_at) / Fold change (Aza/veh), FGFR1OP (ProbeSet 11751329_s_at) / Fold change (ACY-1035/veh), FGFR1OP (ProbeSet 11751329_s_at) / Fold change (Aza/veh), VPS36 (ProbeSet 11739960_a_at) / Fold change (ACY-1035/veh), VPS36 (ProbeSet 11739960_a_at) / RFU SYPL1 (11715823_x_at) / Fold change /veh SYPL1 (11715823_x_at) / RFU IGFBP7 (11715501_s_at) / Fold change /veh IGFBP7 (11715501_s_at) / RFU REEP3 (11722064_at) / Fold change /veh REEP3 (11722064_at) / RFU IGLL1 (11728026_x_at) / Fold change /veh IGLL1 (11728026_x_at): dose or concentration left out as unconfirmed
Details: ProbeSet 11759094_a_at; LIST D

Nc1ccc(-c2cccs2)cc1NC(=O)c1ccc2c(c1)cc(C1CC1)n2CCN1CCOCC1 [ACY-1035] was tested, and the “RFU, GNAQ” value was 492.28 RFU.
